Source: patent US20160201132A1, “GENE EXPRESSION BIOMARKERS OF LAQUINIMOD RESPONSIVENESS” (Teva Pharmaceutical Industries Ltd., priority 2013, published 2016)

System: PBMC of RRMS patients
Test: Gene expression microarray analysis (HG-U133A-2) of PBMC from RRMS patients treated with LAQ, ancillary study to ALLEGRO
Format: in vivo, human
Excerpt: The goal of this ancillary study was to characterize gene expression changes and corresponding biological mechanisms induced in PBMC of RRMS patients by LAQ treatment. According to ALLEGRO clinical trial inclusion criteria, 25 patients were randomly assigned to receive LAQ (n=13, age 38.8±2.3 years, female/male ratio: 8/5) or placebo (n=12, age 37.2±3.4 years, female/male ratio: 8/4).
Peripheral blood samples were obtained from RRMS patients at baseline before start of LAQ treatment or placebo, after 0, 1, 6 and 24 month of treatment (visit 0, 1, 6 and 7 according to ALLEGRO clinical trial protocol correspondently) for gene microarray analysis.
Briefly, 1) Peripheral blood mononuclear cells (PBMC) were obtained from RRMS patients that participated in ALLEGRO and were treated daily with 0.6 mg LAQ or placebo. PBMC were subjected for gene expression analysis (HU-133A-2-Affymatrix arrays) at baseline and at 1 and 6 months of LAQ treatment; 2) Data was analyzed by Partek Genomics Solution software. Most informative genes (MIGs) were defined as those that differentiated between groups with p<0.01. Gene functional annotation, enrichment and pathway analysis were performed by Ingenuity software. For each time point, genes that changed in placebo group were excluded from further analysis; and 3) Verification of LAQ related mechanism was performed by Western blot.
PBMC were extracted from 15 ml peripheral blood, separated by Ficoll-Hypaque gradient. Total RNA was extracted using both Trizol (Invitrogen, USA) and Phase-Lock-Gel columns (Eppendorf, Germany) including a DNase digestion step. RNA integrity was assessed by RNA Experion automated electrophoresis system (Bio-Rad Laboratories, Hercules, Calif.).
Probe synthesis using 3 μg total RNA, hybridization, detection, and scanning was performed according to the standard Affymetrix, Inc. USA protocols; cDNA was synthesized using the Two-Cycle cDNA Synthesis Kit (Affymetrix, Inc., USA), and in-vitro transcription performed with the GeneChip IVT Labeling Kit (Affymetrix, Inc., USA). The biotin-labeled IVT-RNA was hybridized to HG-U133A-2 arrays containing 18,400 gene transcripts, each corresponding to 14,500 well-annotated human genes, washed in a GeneChip Fluidics Station 450 (Hewlett Packard, USA, GeneArray-™ scanner G2500A) and scanned according to the manufacturer's protocol (Affymetrix, Inc., USA).
Data analysis was performed on Partek Genomics Solution software (www.partek.com; Partek Incorporated, St. Louis, Mo.). Expression values were computed from raw CEL files by applying the Robust Multi-Chip Average (RMA) background correction algorithm. RMA correction included: 1) values background correction; 2) quintile normalization; 3) log 2 transformation; and 4) median polish summarization. The ANOVA, Repeated Measures and correlation analysis implicated in Partek software ware applied to evaluate LAQ effects. Most informative genes MIGs were defined as those that differentiated between experimental groups with p<0.01. All p-values were calculated for False Discovery Rate (FDR) multiple test correction at p=0.05.
Additionally, significance of individual genes was tested by parametric T-test and non parametric Mann-Whitney test using Bootstrapping approach based on repeated permutations of the data with 5% FDR for multiple testing.
Gene functional annotation, enrichment, and pathway analyses to identify the leading biological pathways that operated under LAQ treatment were performed by Ingenuity Pathways Analysis software (www.ingenuity.com).
ANOVA analysis was used to compare PBMC gene expression after 1, 6 or 24 month of LAQ treatment with baseline gene expression.
For each time point inventors performed analysis source of variation in dataset. (FIG. 1). Age, gender and batch effects were considered as confounders regarding LAQ or Placebo related changes. For each time point genes associated with Placebo effect were evaluated and excluded from further analysis. […]

[1] = after six months of LAQ treatment
[2] = combined 6 and 24 months vs baseline

Compound: CCN(C(=O)c1c(O)c2c(Cl)cccc2n(C)c1=O)c1ccccc1 [LAQ, 5-chloro-N-ethyl-4-hydroxy-1-methyl-2-oxo-N-phenyl-1,2-dihydroquinoline-3-carboxamide]
- p, down regulation of pro-inflammatory cytokines IL-9/11/12/20/36, TNFRSF11A/B, IFNA4/8/10/17 and receptors for IL-5/13/20/22 [1]: 3*10^−3 to 9*10^−3
- p, down-regulation of MMP16/24/26/28 and ADAM12/18/22 [1]: 4.95*10^−4 to 1.26*10^−3
- p, suppression of CCL19 and chemokine receptor CXCR1/2 [1]: 6.79*10^−3
- genes (#), Adhesion of cells (after six months of treatment): 119
- genes (#), Caveolar mediated endocytosis (after six months of treatment): 13
- genes (#), Cell signaling: Neurotransmission (after six months of treatment): 56
- genes (#), Cellular movement: Invasion of cells (after six months of treatment): 120
- genes (#), Development: Arachidonic Acid metabolism (after six months of treatment): 18
- genes (#), Development: G protein Coupled Receptor Signaling (after six months of treatment): 73
- genes (#), Hematological system: Coagulation system (after six months of treatment): 7
- genes (#), Hematological system: Intrinsic prothrombin activation pathway (after six months of treatment): 6
- genes (#), Inflammatory response: IL-12 signaling (after six months of treatment): 11
- genes (#), TGFB signaling (after six months of treatment): 14
- genes (#), Leukocyte Extravasation Signaling (after six months of treatment, cellular movement function): 31
- genes (#), Leukocyte Extravasation Signaling (after six months of treatment, inflammatory response function): 29
- # of genes p < 0.01 (LAQ related MIGs, ANOVA) [2]: 2922
- Down regulated genes (LAQ related MIGs) [2]: 2911
- Up-regulated genes (LAQ related MIGs) [2]: 11
- Fold-Change (4.0 vs. 0.0) (gene AAK1): −1.184
- Fold-Change (4.0 vs. 0.0) (gene ACSM5): −1.184
- Fold-Change (4.0 vs. 0.0) (gene ACTA1): −1.184
- Fold-Change (4.0 vs. 0.0) (gene AIF1): −1.179
- Fold-Change (4.0 vs. 0.0) (gene AKAP9): −1.183
- Fold-Change (4.0 vs. 0.0) (gene ALX4, after six months of LAQ): −1.285
- Fold-Change (4.0 vs. 0.0) (gene ASCL1): −1.178
- Fold-Change (4.0 vs. 0.0) (gene ATN1): −1.181
- Fold-Change (4.0 vs. 0.0) (gene BCAN): −1.178
- Fold-Change (4.0 vs. 0.0) (gene BCAP29): −1.18
- Fold-Change (4.0 vs. 0.0) (gene C10orf81): −1.183
- Fold-Change (4.0 vs. 0.0) (gene CA10): −1.181
- Fold-Change (4.0 vs. 0.0) (gene CBS): −1.179
- Fold-Change (4.0 vs. 0.0) (gene CLCN7): −1.177
- Fold-Change (4.0 vs. 0.0) (gene CLEC4M): −1.184
- Fold-Change (4.0 vs. 0.0) (gene CLN8): −1.182
- Fold-Change (4.0 vs. 0.0) (gene CNOT4): −1.181
- Fold-Change (4.0 vs. 0.0) (gene CYP2B6 /// CYP2B7P1, after six months of LAQ): −1.2873
- Fold-Change (4.0 vs. 0.0) (gene CYR61): −1.181
- Fold-Change (4.0 vs. 0.0) (gene DCBLD2): −1.18
- Fold-Change (4.0 vs. 0.0) (gene DDN): −1.178
- Fold-Change (4.0 vs. 0.0) (gene DHX34): −1.184
- Fold-Change (4.0 vs. 0.0) (gene DNAH3): −1.184
- Fold-Change (4.0 vs. 0.0) (gene DPYSL4): −1.18
- Fold-Change (4.0 vs. 0.0) (gene DUOX2): −1.178
- Fold-Change (4.0 vs. 0.0) (gene ESPL1, after six months of LAQ): −1.284
- Fold-Change (4.0 vs. 0.0) (gene EXO1): −1.179
- Fold-Change (4.0 vs. 0.0) (gene FAM188A): −1.178
- Fold-Change (4.0 vs. 0.0) (gene FAM189A1): −1.183
- Fold-Change (4.0 vs. 0.0) (gene GIPR): −1.1819
- Fold-Change (4.0 vs. 0.0) (gene GPR12): −1.178
- Fold-Change (4.0 vs. 0.0) (gene GPRIN2): −1.179
- Fold-Change (4.0 vs. 0.0) (gene GRK5, after six months of LAQ): −1.289
- Fold-Change (4.0 vs. 0.0) (gene GRM1): −1.181
- Fold-Change (4.0 vs. 0.0) (gene GRM8): −1.182
- Fold-Change (4.0 vs. 0.0) (gene HHLA1): −1.181
- Fold-Change (4.0 vs. 0.0) (gene HOXC11): −1.181
- Fold-Change (4.0 vs. 0.0) (gene HS3ST3B1): −1.178
- Fold-Change (4.0 vs. 0.0) (gene ICMT): −1.183
- Fold-Change (4.0 vs. 0.0) (gene IFNA17): −1.18
- Fold-Change (4.0 vs. 0.0) (gene IGHG1): −1.183
- Fold-Change (4.0 vs. 0.0) (gene IHH): −1.179
- Fold-Change (4.0 vs. 0.0) (gene ITGB4): −1.181
- Fold-Change (4.0 vs. 0.0) (gene KCND3): −1.184
- Fold-Change (4.0 vs. 0.0) (gene KRT5, after six months of LAQ): −1.285
- Fold-Change (4.0 vs. 0.0) (gene LAMA3): −1.181
- Fold-Change (4.0 vs. 0.0) (gene LAMC2): −1.18
- Fold-Change (4.0 vs. 0.0) (gene MALL, after six months of LAQ): −1.286
- Fold-Change (4.0 vs. 0.0) (gene MGC2889): −1.18
- Fold-Change (4.0 vs. 0.0) (gene MGC31957): −1.183
- Fold-Change (4.0 vs. 0.0) (gene MORN1): −1.178
- Fold-Change (4.0 vs. 0.0) (gene MYOZ1): −1.183
- Fold-Change (4.0 vs. 0.0) (gene NAGLU): −1.184
- Fold-Change (4.0 vs. 0.0) (gene NECAB2): −1.179
- Fold-Change (4.0 vs. 0.0) (gene NNAT): −1.184
- Fold-Change (4.0 vs. 0.0) (gene NOVA2): −1.18
- Fold-Change (4.0 vs. 0.0) (gene NOX1): −1.179
- Fold-Change (4.0 vs. 0.0) (gene NPR1): −1.1842
- Fold-Change (4.0 vs. 0.0) (gene NR1I2): −1.182
- Fold-Change (4.0 vs. 0.0) (gene NTRK2): −1.183
- Fold-Change (4.0 vs. 0.0) (gene OR1A2): −1.179
- Fold-Change (4.0 vs. 0.0) (gene OR2J2): −1.18
- Fold-Change (4.0 vs. 0.0) (gene OR3A3): −1.182
- Fold-Change (4.0 vs. 0.0) (gene PACRG): −1.182
- Fold-Change (4.0 vs. 0.0) (gene PAH): −1.182
- Fold-Change (4.0 vs. 0.0) (gene PARD3, after six months of LAQ): −1.288
- Fold-Change (4.0 vs. 0.0) (gene PDX1): −1.179
- Fold-Change (4.0 vs. 0.0) (gene PKNOX2): −1.183
- Fold-Change (4.0 vs. 0.0) (gene POLQ): −1.179
- Fold-Change (4.0 vs. 0.0) (gene POPDC3): −1.184
- Fold-Change (4.0 vs. 0.0) (gene PRDM11): −1.183
- Fold-Change (4.0 vs. 0.0) (gene PRKCE): −1.179
- Fold-Change (4.0 vs. 0.0) (gene PRKG1): −1.181
- Fold-Change (4.0 vs. 0.0) (gene PRSS7): −1.18
- Fold-Change (4.0 vs. 0.0) (gene PURA): −1.179
- Fold-Change (4.0 vs. 0.0) (gene RAB11B): −1.18
- Fold-Change (4.0 vs. 0.0) (gene RAD51): −1.18
- Fold-Change (4.0 vs. 0.0) (gene RELN): −1.18
- Fold-Change (4.0 vs. 0.0) (gene RET): −1.183
- Fold-Change (4.0 vs. 0.0) (gene RUNX2): −1.177
- Fold-Change (4.0 vs. 0.0) (gene SERPINB3): −1.178
- Fold-Change (4.0 vs. 0.0) (gene SLC6A11): −1.181
- Fold-Change (4.0 vs. 0.0) (gene SLC25A10): −1.182
- Fold-Change (4.0 vs. 0.0) (gene SLC30A3): −1.184
- Fold-Change (4.0 vs. 0.0) (gene SLC37A4): −1.181
- Fold-Change (4.0 vs. 0.0) (gene SLC39A2): −1.178
- Fold-Change (4.0 vs. 0.0) (gene SLCO5A1): −1.181
- Fold-Change (4.0 vs. 0.0) (gene SOD3): −1.181
- Fold-Change (4.0 vs. 0.0) (gene SOX15, after six months of LAQ): −1.285
- Fold-Change (4.0 vs. 0.0) (gene STRA6): −1.181
- Fold-Change (4.0 vs. 0.0) (gene TACR2): −1.18
- Fold-Change (4.0 vs. 0.0) (gene TRIO): −1.1816
- Fold-Change (4.0 vs. 0.0) (gene TTLL5): −1.182
- Fold-Change (4.0 vs. 0.0) (gene TTYH1): −1.177
- Fold-Change (4.0 vs. 0.0) (gene VPS37B, after six months of LAQ): −1.288
- Fold-Change (4.0 vs. 0.0) (gene VSNL1): −1.18
- Fold-Change (4.0 vs. 0.0) (gene XPNPEP2): −1.183
- Fold-Change (4.0 vs. 0.0) (gene ZNF215): −1.182
- Fold-Change (4.0 vs. 0.0) (gene ZNF280B): −1.177
- Fold-Change (4.0 vs. 0.0) (gene ZNF484): −1.1781
- suppressed molecules associated with different mechanisms of inflammatory response (of 354 genes affected after 1 month of treatment): 50
- down-regulated genes related to cellular movement mechanisms (of 1564 genes that passed FDR, more than 6 months (combined 6 and 24 months)): 305
- share of significantly changed genes that were down regulated (one month of treatment): 98%
- genes related to suppression of Cellular movement functions (out of 1562 genes, 6 months of treatment): 260
- share of significantly changed genes that were down regulated (six months of treatment): 99%
